In one assay the target is PHF (paired helical filaments) isolated from the brain of an Alzheimer's disease patient (Homo sapiens, UniProt P10636). Nature of the assay: Competitive binding assay: displacement of primulin fluorescence from PHFs. Particulars: concentration that reduces the signal of 1 μM primulin to 50% of control; relative affinity. The method, then:
The DSB compounds were tested for their ability to bind to PHF in a competition-style assay.
If a test compound that also binds to PHFs with the same or greater affinity is added, it will displace the reference ligand and reduce the fluorescence signal. In the present assay, the reference compound is primulin, which was added at 1 μM. Test compounds were added at concentrations from 0.05 to 1 μM. The P50 for a test compound is defined as the concentration of compound that reduces the primulin signal to 50% of the control value. This value is, therefore, not an absolute affinity, but a relative affinity compared to the affinity of primulin.
PHFs were isolated from the brain of an Alzheimer's disease patient essentially as described by Wischik et al. (Neurobiology of Aging, Vol. 16, pp. 409-431, 1995). The IFII fraction was isolated by centrifugation on a sucrose gradient as described in the PhD thesis of C. M. Wischik, and was further extracted into an ‘abc sup’ as described by C. M. Wischik (Thesis “The structure and biochemistry of paired helical filaments in Alzheimer's disease” Part I and II; Cambridge University, 1989).
The assay for ligand activity was performed in 96 well plates (Nunc Cat. No. 236108). The test compound at the required concentration was mixed with PHFs, then primulin was added to give a final concentration of 1 μM and a total volume of 100 μl. The concentration of PHFs added was determined for each preparation to give an adequate fluorescence signal, and was typically in the range 1-2 μl/100 μl. The test compounds were typically dissolved in DMSO to give a final concentration of 10% DMSO in the assay. The control fluorescence, in the absence of PHFs, was also measured in the presence of 10% DMSO.
The fluorescence was measured in a Varian Carey Eclipse Fluorescence Spectrophotometer, with the […] wavelength at 480 nm. Excitation spectra were recorded and corrected by subtraction of the signal measured in the absence of PHFs, using the Varian software. The fluorescence signal at the peak […] wavelength of 420 nm was measured from the corrected spectra. The fluorescence values were plotted as a function of concentration of test compound, and the value for P50 measured from the graph.
Chain of PHF (paired helical filaments) isolated from the brain of an Alzheimer's disease patient (P10636 623-708 limits assumed): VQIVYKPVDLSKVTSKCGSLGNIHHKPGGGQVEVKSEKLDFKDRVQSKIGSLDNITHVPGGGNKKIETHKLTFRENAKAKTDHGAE
For `Cc1ccc2nc(-c3ccc(NC(=O)c4ccccc4N)cc3)sc2c1` [ABAA-04], the P50 entry is listed as “no effect”. `Cc1ccc2nc(-c3ccc(NC(=O)c4cccc(N)c4)cc3)sc2c1` [ABAA-05]: the P50 result is “no effect”. The same measure, in the same setting: to `Cc1ccc2nc(-c3ccc(NC(=O)c4ccccc4N(C)C)cc3)sc2c1` [ABAA-07] belongs “no effect”. The same measure, in the same setting: to `Cc1ccc2nc(-c3ccc(NC(=O)c4cccc(N(C)C)c4)cc3)sc2c1` [ABAA-08] belongs “no effect”; to `CNc1cccc(C(=O)Nc2ccc(-c3nc4ccc(C)cc4s3)cc2)c1` [ABAA-12], “no effect”. Consider `O=C(Nc1ccc(-c2nc3ccc(O)cc3s2)cc1)c1ccc(OCCC(F)(F)F)cc1` [ABFHA-04], for which the P50 result is “no effect”.

With `COc1ccc2nc(-c3ccc(NC(=O)c4ccccc4C(F)(F)F)cc3)sc2c1` [ABFMA-01], the P50 result was “no effect”. For the compound `COc1ccc2nc(-c3ccc(NC(=O)c4cccc(C(F)(F)F)c4)cc3)sc2c1` [ABFMA-02], the P50 entry is “no effect”. Take `COc1ccc2nc(-c3ccc(NC(=O)c4ccc(C(F)(F)F)cc4)cc3)sc2c1` [ABFMA-03]: the P50 result is given as “no effect”. Same read-out and setting: the value for `COc1ccc(C(=O)Nc2ccc(-c3nc4ccc(OC)cc4s3)cc2OC)c(C(F)(F)F)c1` [ABFMA-10] was “no effect”; that for `COc1ccc2nc(-c3ccc(NC(=O)c4ccc(OCCCC(F)(F)F)cc4)cc3)sc2c1` [ABFMA-13] was “no effect”. Take `COc1ccc2nc(-c3ccc(NC(=O)c4ccc(N)cc4C(F)(F)F)cc3)sc2c1` [ABFMA-16]: the P50 result was “no effect”. Same read-out and setting: to `COc1ccc2nc(-c3ccc(NC(=O)c4ccc(N(C)C)cc4C(F)(F)F)cc3)sc2c1` [ABFMA-18] belongs “no effect”. Same read-out and setting: the value for `COc1ccc2nc(-c3ccc(NC(=O)c4ccc(OCC(F)(F)F)cc4)cc3)sc2c1` [ABFMA-19] was “no effect”; that for `COc1cc(NC(=O)c2ccccc2N(C)C)ccc1-c1nc2ccc(O)cc2s1` [ABHA-04] was “no effect”; that for `COc1ccc2nc(-c3ccc(NC(=O)c4ccc(F)cc4)cc3)sc2c1` [ABMFMA-01] was “no effect”. On the same count and under the same terms, to `COc1ccc2nc(-c3ccc(NC(=O)c4ccc(OCCF)cc4)cc3)sc2c1` [ABMFMA-06] belongs “no effect”. With `CN(C)c1ccc(C(=O)Nc2ccc(-c3cn4cccnc4n3)cc2)cc1` [AIPM-01], the P50 entry is listed as “no effect”. On the same count and under the same terms, to `Cc1ccc2nc(-c3ccc(NC(=O)c4ccncc4)cc3)cn2c1` [AIPN-03] belongs “no effect”; to `Cc1ccc2nc(-c3ccc(NC(=O)c4cccnc4)cc3)cn2c1` [AIPN-04], “no effect”. The same measure, in the same setting: to `Cc1ccc2nc(-c3ccc(NC(=O)c4ccc(F)nc4)cc3)cn2c1` [AIPN-06] belongs “no effect”.

The assay is the same for the next values; noted with them: concentration that reduces the signal of 1 μM primulin to 50% of control; relative affinity; read-out: P50.
With `Cc1ccc2nc(-c3ccc(NC(=O)c4ccc(N)cc4)cc3)sc2c1` [ABAA-06], the IC50 came out at 520 nM. In the case of `Cc1ccc2nc(-c3ccc(NC(=O)c4ccccc4)cc3)sc2c1` [ABAA-10], the IC50 was roughly 1200 nM.

Regarding `Cc1ccc2nc(-c3ccc(NC(=O)c4cccc(O)c4)cc3)sc2c1` [ABAA-11], the IC50 is roughly 1200 nM. On the same count and under the same terms, the value for `CN(C)CCOc1ccc2nc(-c3ccc(NC(=O)c4ccc([N+](=O)[O-])c(C(F)(F)F)c4)cc3)sc2c1` [ABDMAA-01] was 980 nM; that for `CN(C)CCOc1ccc2nc(-c3ccc(NC(=O)c4ccc([N+](=O)[O-])c(C(F)(F)F)c4)cc3)sc2c1` [ABDMAA-02] was greater than 1000 nM. Still for that read-out and setting: the value for `O=C(Nc1ccc(-c2nc3ccc(O)cc3s2)cc1)c1ccc([N+](=O)[O-])c(C(F)(F)F)c1` [ABFHA-01] was 190 nM. Same read-out and setting: the value for `Nc1ccc(C(=O)Nc2ccc(-c3nc4ccc(O)cc4s3)cc2)cc1C(F)(F)F` [ABFHA-02] was 340 nM; that for `O=C(Nc1ccc(-c2nc3ccc(O)cc3s2)cc1)c1ccc(OCC(F)(F)F)cc1` [ABFHA-03] was 100 nM.

For `O=C(Nc1ccc(-c2nc3ccc(O)cc3s2)cc1)c1ccc(OCCCC(F)(F)F)cc1` [ABFHA-05], the IC50 worked out at 400 nM. On the same count and under the same terms, to `O=C(Nc1ccc(-c2nc3ccc(O)cc3s2)c(O)c1)c1cc(OC(F)(F)F)ccc1O` [ABFHA-06] belongs 390 nM; to `O=C(Nc1ccc(-c2nc3ccc(O)cc3s2)c(O)c1)c1ccc(F)cc1` [ABFHA-07], 100 nM; to `O=C(Nc1ccc(-c2nc3ccc(O)cc3s2)cc1)c1ccc(O)cc1C(F)(F)F` [ABFHA-08], greater than 1000 nM. As to `O=C(Nc1ccc(-c2nc3ccc(O)cc3s2)cc1)c1cc(OC(F)(F)F)ccc1O` [ABFHA-09], the IC50 was greater than 1000 nM. Same read-out and setting: to `O=C(Nc1ccc(-c2nc3ccc(O)cc3s2)c(C(F)(F)F)c1)c1ccc(O)cc1` [ABFHA-10] belongs greater than 1000 nM; to `O=C(Nc1ccc(-c2nc3ccc(O)cc3s2)cc1)c1ccc(F)c([N+](=O)[O-])c1` [ABFHA-11], 310 nM.

As to `COc1ccc2nc(-c3ccc(NC(=O)c4ccc([N+](=O)[O-])c(C(F)(F)F)c4)cc3)sc2c1` [ABFMA-12], the IC50 was 170 nM. Still for that read-out and setting: the value for `COc1ccc2nc(-c3ccc(NC(=O)c4ccc(N)c(C(F)(F)F)c4)cc3)sc2c1` [ABFMA-15] was 430 nM. In the case of `Nc1ccccc1C(=O)Nc1ccc(-c2nc3ccc(O)cc3s2)cc1` [ABHA-01], the IC50 was found to be 900 nM.

For the compound `Nc1cccc(C(=O)Nc2ccc(-c3nc4ccc(O)cc4s3)cc2)c1` [ABHA-02], the IC50 worked out at 560 nM.

In the case of `Nc1ccc(C(=O)Nc2ccc(-c3nc4ccc(O)cc4s3)cc2)cc1` [ABHA-03], the IC50 was 450 nM. For the compound `COc1ccc2nc(-c3ccc(NC(=O)c4ccccc4N)cc3)sc2c1` [ABMA-04], the IC50 is 870 nM. For the compound `COc1ccc2nc(-c3ccc(NC(=O)c4cccc(N)c4)cc3)sc2c1` [ABMA-05], the IC50 came to 850 nM. On the same count and under the same terms, to `COc1ccc2nc(-c3ccc(NC(=O)c4ccc(N)cc4)cc3)sc2c1` [ABMA-06] belongs 370 nM. Same read-out and setting: the value for `COc1ccc2nc(-c3ccc(NC(=O)c4ccccc4N(C)C)cc3)sc2c1` [ABMA-07] was 1350 nM; that for `COc1ccc2nc(-c3ccc(NC(=O)c4cccc(N(C)C)c4)cc3)sc2c1` [ABMA-08] was roughly 1200 nM; that for `COc1ccc2nc(-c3ccc(NC(=O)c4ccc(N(C)C)cc4)cc3)sc2c1` [ABMA-09] was 170 nM. The same measure, in the same setting: to `COc1ccc2nc(-c3ccc(NC(=O)c4ccc(OC(C)=O)cc4)cc3)sc2c1` [ABMA-10] belongs 310 nM. Turning to `COc1ccc2nc(-c3ccc(NC(=O)c4ccc(O)cc4)cc3)sc2c1` [ABMA-11], the IC50 came to 430 nM. In the case of `COc1ccc2nc(-c3ccc(NC(=O)c4ccc(O)c([N+](=O)[O-])c4)cc3)sc2c1` [ABMA-13], the IC50 was 310 nM. The same measure, in the same setting: the value for `COc1ccc2nc(-c3ccc(NC(=O)c4ccc(F)nc4)cc3)sc2c1` [ABMFMA-02] was 890 nM; that for `COc1ccc2nc(-c3ccc(NC(=O)c4ccc(Cl)nc4)cc3)sc2c1` [ABMFMA-03] was 340 nM; that for `COc1ccc2nc(-c3ccc(NC(=O)c4ccc(F)c([N+](=O)[O-])c4)cc3)sc2c1` [ABMFMA-05] was 200 nM. Same read-out and setting: to `COc1ccc2nc(-c3ccc(NC(=O)c4ccc(Br)c([N+](=O)[O-])c4)cc3)sc2c1` [ABMFMA-08] belongs greater than 1000 nM. Still for that read-out and setting: to `COc1ccc2nc(-c3ccc(NC(=O)c4ccc(I)c([N+](=O)[O-])c4)cc3)sc2c1` [ABMFMA-09] belongs 210 nM.

`CN(C)c1ccc(C(=O)Nc2ccc(-c3cn4ccccc4n3)cc2)cc1` [AIPN-01]: the IC50 is greater than 1000 nM.

As to `Cc1ccc2nc(-c3ccc(NC(=O)c4ccc(N(C)C)cc4)cc3)cn2c1` [AIPN-02], the IC50 amounted to 310 nM. On to `Cc1ccc2nc(-c3ccc(NC(=O)c4ccccn4)cc3)cn2c1` [AIPN-05], for which the IC50 was 510 nM. On the same count and under the same terms, to `Cc1ccc2nc(-c3ccc(NC(=O)c4cccc(F)n4)cc3)cn2c1` [AIPN-07] belongs greater than 1000 nM.

On to `Cc1ccc2nc(-c3ccc(NC(=O)c4ccc([N+](=O)[O-])cc4)cc3)cn2c1` [AIPN-08], for which the IC50 came out at 100 nM. Same read-out and setting: to `Cc1ccc2nc(-c3ccc(NC(=O)c4ccc([N+](=O)[O-])c(C(F)(F)F)c4)cc3)cn2c1` [AIPN-09] belongs 340 nM; to `Cc1ccc2nc(-c3ccc(NC(=O)c4ccc(NO)c(C(F)(F)F)c4)cc3)cn2c1` [AIPN-10], 180 nM; to `Cc1ccc2nc(-c3ccc(NC(=O)c4ccc(N)cc4)cc3)cn2c1` [AIPN-11], 660 nM. Still for that read-out and setting: the value for `CNc1ccc(C(=O)Nc2ccc(-c3cn4cc(C)ccc4n3)cc2)cc1` [AIPN-12] was 330 nM. The same measure, in the same setting: the value for `COc1ccc(C(=O)Nc2ccc(-c3cn4cc(C)ccc4n3)cc2)cc1` [AIPN-13] was 630 nM.

(Values after patent US8895313B2, “Ligands for aggregated tau molecules” (Wista Laboratories Ltd., priority 2008, dated 2014).)
